Values of other authors, collected in patent US20110207832A1, “SKIN DISINFECTANT COMPOSITION AND METHODS FOR MANUFACTURING AND USING” (Skinvisible Pharmaceuticals, Inc., priority 2010, published 2011).

Experiments:
[1] = in vivo

Compound: Poly(vinylpyrrolidone/1-eicosene) [PVPE]
- dermal toxicity [1]: no demonstrable dermal toxicity

Compound: Poly(vinylpyrrolidone/1-hexadecene) [PVPH]
- dermal toxicity [1]: no demonstrable dermal toxicity

Compound: [H]/N=C(\N/C(=N/[H])NCCCCCCNC(=N)NC(=N)Nc1ccc(Cl)cc1)Nc1ccc(Cl)cc1 [chlorhexidine, 1,6-di(4-chlorophenyl-diguanido) hexane]
- water solubility (in words): practically insoluble in water
